Measured values: patent publication US20230265151A1, “GIP/GLP1 CO-AGONIST COMPOUNDS” (priority 2020, published 2023)
Read-outs that look alike come from different tables or passages of the source.

Tests used:
Type in all cases: cell-based
[1] = biological target: T1, hGIPR (Homo sapiens, UniProt P48546); assay: Functional cAMP formation (HTRF) in HEK-293 clonal cells expressing hGIPR, 0.1% bovine casein, without or with 1.0% human serum albumin; conditions: 37° C.; for Emax: percent of maximal response to GIP(1-42)NH2, read-out: hGIPR Emax, % ± SEM; for EC50: geometric mean, read-out: hGIPR EC50, nM (SEM, n)
T1 construct: expressed in transfected cells
T1 sequence (P48546 22-466): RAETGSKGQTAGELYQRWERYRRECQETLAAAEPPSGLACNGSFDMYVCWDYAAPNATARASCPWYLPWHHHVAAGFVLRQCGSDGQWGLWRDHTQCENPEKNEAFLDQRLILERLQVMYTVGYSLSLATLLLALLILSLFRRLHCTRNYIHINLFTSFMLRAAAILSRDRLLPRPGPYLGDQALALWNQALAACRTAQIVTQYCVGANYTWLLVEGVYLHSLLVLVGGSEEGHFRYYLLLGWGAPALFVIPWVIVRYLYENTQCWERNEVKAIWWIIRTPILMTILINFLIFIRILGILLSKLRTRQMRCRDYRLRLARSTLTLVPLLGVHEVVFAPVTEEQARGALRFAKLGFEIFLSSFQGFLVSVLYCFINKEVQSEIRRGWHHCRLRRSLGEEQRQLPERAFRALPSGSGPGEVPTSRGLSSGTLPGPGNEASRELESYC
Method in brief: (§1)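 Cells were stimulated with peptide for 30 min at 37° C, then lysed in buffer carrying cAMP-d2 and anti-cAMP Eu3+-cryptate for a competitive HTRF read after at least 60 min at room temperature. The 665/620 nm ratio was converted to nM cAMP against a standard curve.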

[2] = biological target: T2, hGCGR (Homo sapiens, UniProt P47871); assay: Functional cAMP formation (HTRF) in HEK-293 clonal cells expressing hGCGR, 0.1% bovine casein, without or with 1.0% human serum albumin; conditions: 37° C., geometric mean, read-out: hGCGR EC50, nM (SEM, n)
T2 construct: expressed in transfected cells
Method in brief: as §1

[3] = biological target: hGLP-1R (Homo sapiens, UniProt P43220); assay: Functional cAMP formation (HTRF) in HEK-293 clonal cells expressing hGLP-1R, 0.1% bovine casein, without or with 1.0% human serum albumin; design: expressed in transfected cells; conditions: 37° C.; for Emax: percent of maximal response to GLP-1(7-36)NH2, read-out: hGLP-1R Emax, % ± SEM; for EC50: cAMP, 0.1% bovine casein (no human serum albumin), geometric mean, read-out: hGLP-1R EC50, nM (SEM, n)
Method in brief: as §1

[4] = HEK293, 0.1% bovine casein and 1.0% human serum albumin
[5] = cAMP, 0.1% bovine casein (no human serum albumin)
[6] = 0.1% bovine casein and 1.0% human serum albumin
[7] = HEK293, cAMP, 0.1% bovine casein, arithmetic mean

hGLP-1R, sequence (P43220 24-463): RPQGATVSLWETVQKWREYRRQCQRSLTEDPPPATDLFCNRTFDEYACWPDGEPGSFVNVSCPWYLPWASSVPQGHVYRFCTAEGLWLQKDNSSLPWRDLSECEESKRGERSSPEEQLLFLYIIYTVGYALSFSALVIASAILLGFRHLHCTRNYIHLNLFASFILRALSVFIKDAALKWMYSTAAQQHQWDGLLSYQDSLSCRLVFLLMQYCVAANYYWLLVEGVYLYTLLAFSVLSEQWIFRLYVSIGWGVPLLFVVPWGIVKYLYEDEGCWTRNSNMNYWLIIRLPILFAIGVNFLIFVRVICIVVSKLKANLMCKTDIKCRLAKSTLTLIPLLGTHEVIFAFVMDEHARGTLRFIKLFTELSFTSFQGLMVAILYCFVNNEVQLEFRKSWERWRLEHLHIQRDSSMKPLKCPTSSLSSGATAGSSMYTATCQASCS
T2 sequence (P47871 26-477): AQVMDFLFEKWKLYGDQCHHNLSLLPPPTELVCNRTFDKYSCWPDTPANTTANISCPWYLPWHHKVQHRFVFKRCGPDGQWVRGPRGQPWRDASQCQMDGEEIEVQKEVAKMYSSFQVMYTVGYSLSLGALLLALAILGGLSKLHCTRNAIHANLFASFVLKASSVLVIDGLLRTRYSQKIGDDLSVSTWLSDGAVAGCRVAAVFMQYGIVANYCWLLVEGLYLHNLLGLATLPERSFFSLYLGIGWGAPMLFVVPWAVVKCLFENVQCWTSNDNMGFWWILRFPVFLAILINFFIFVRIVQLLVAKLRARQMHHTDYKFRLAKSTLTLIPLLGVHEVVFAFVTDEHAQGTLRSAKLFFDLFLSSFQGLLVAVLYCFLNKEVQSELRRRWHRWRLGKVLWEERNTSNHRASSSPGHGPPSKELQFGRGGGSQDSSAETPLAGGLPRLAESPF

SMILES	Emax [1, 4] [%]	EC50 [1, 5] [nM]	EC50 [2, 6] [nM]	EC50 [2, 5] [nM]	Emax [3, 7] [%]	EC50 [3] [nM]	Emax [1, 7] [%]	Emax [3, 4] [%]	EC50 [1, 6] [nM]
CC[C@H](C)[C@H](NC(=O)[C@H](CC(C)C)NC(=O)[C@](C)(Cc1ccc(O)cc1)NC(=O)[C@@H](CCC(=O)O)NC(=O)[C@@H](NC(=O)[C@H](Cc1ccccc1)NC(=O)[C@H](CCC(=O)O)NC(=O)C(C)(C)NC(=O)[C@H](CCC(N)=O)NC(=O)[C@H](C)NC(=O)[C@H](CCCCNC(=O)COCCOCCNC(=O)COCCOCCNC(=O)CC[C@H](NC(=O)CCCCCCCCCCCCC(=O)O)C(=O)O)NC(=O)[C@H](CCCN)NC(=O)[C@H](CC(=O)O)NC(=O)[C@H](CC(C)C)NC(=O)[C@](C)(CC(C)C)NC(=O)[C@@H](NC(=O)[C@H](CO)NC(=O)[C@H](Cc1ccc2ccccc2c1)NC(=O)[C@H](CC(=O)O)NC(=O)[C@H](CO)NC(=O)[C@@H](NC(=O)[C@](C)(Cc1ccccc1F)NC(=O)[C@@H](NC(=O)CNC(=O)[C@H](CCC(=O)O)NC(=O)C(C)(C)NC(=O)[C@@H](N)Cc1ccc(O)cc1)[C@@H](C)O)[C@@H](C)O)[C@@H](C)CC)[C@@H](C)CC)C(=O)N[C@@H](CCC(=O)O)C(=O)NCC(=O)NCC(=O)N1CCC[C@H]1C(=O)N[C@@H](CO)C(=O)N[C@@H](CO)C(=O)NCC(=O)N[C@@H](C)C(=O)N1CCC[C@H]1C(=O)N1CCC[C@H]1C(=O)N1CCC[C@H]1C(=O)N[C@@H](CO)C(=O)N[C@@H](CCCCNC(=O)COCCOCCNC(=O)COCCOCCNC(=O)CC[C@H](NC(=O)CCCCCCCCCCCCC(=O)O)C(=O)O)C(N)=O [Example 251]	71.2	0.0305	> 9950	> 9950	99	0.338			
CC[C@H](C)[C@H](NC(=O)[C@H](CCCN)NC(=O)[C@H](CC(=O)O)NC(=O)[C@H](CC(C)C)NC(=O)[C@](C)(CC(C)C)NC(=O)[C@@H](NC(=O)[C@H](CO)NC(=O)[C@H](Cc1ccc2ccccc2c1)NC(=O)[C@H](CC(=O)O)NC(=O)[C@H](CO)NC(=O)[C@@H](NC(=O)[C@](C)(Cc1ccccc1F)NC(=O)[C@@H](NC(=O)CNC(=O)[C@H](CCC(=O)O)NC(=O)C(C)(C)NC(=O)[C@@H](N)Cc1ccc(O)cc1)[C@@H](C)O)[C@@H](C)O)[C@@H](C)CC)C(=O)N[C@@H](C)C(=O)N[C@@H](CCC(N)=O)C(=O)NC(C)(C)C(=O)N[C@@H](CCC(=O)O)C(=O)N[C@@H](Cc1ccccc1)C(=O)N[C@H](C(=O)N[C@@H](CCCCNC(=O)COCCOCCNC(=O)COCCOCCNC(=O)CC[C@H](NC(=O)CCCCCCCCCCCCC(=O)O)C(=O)O)C(=O)N[C@@](C)(Cc1ccc(O)cc1)C(=O)N[C@@H](CC(C)C)C(=O)N[C@H](C(=O)N[C@@H](CCCCNC(=O)COCCOCCNC(=O)COCCOCCNC(=O)CC[C@H](NC(=O)CCCCCCCCCCCCC(=O)O)C(=O)O)C(=O)NCC(=O)NCC(=O)N1CCC[C@H]1C(=O)N[C@@H](CO)C(=O)N[C@@H](CO)C(=O)NCC(=O)N[C@@H](C)C(=O)N1CCC[C@H]1C(=O)N1CCC[C@H]1C(=O)N1CCC[C@H]1C(=O)N[C@@H](CO)C(N)=O)[C@@H](C)CC)[C@@H](C)CC [Example 252]	87.2		> 9950	> 9950	115	0.555	109	115	
CC[C@H](C)[C@H](NC(=O)[C@H](CCCN)NC(=O)[C@H](CC(=O)O)NC(=O)[C@H](CC(C)C)NC(=O)[C@](C)(CC(C)C)NC(=O)[C@@H](NC(=O)[C@H](CO)NC(=O)[C@H](Cc1ccc2ccccc2c1)NC(=O)[C@H](CC(=O)O)NC(=O)[C@H](CO)NC(=O)[C@@H](NC(=O)[C@](C)(Cc1ccccc1F)NC(=O)[C@@H](NC(=O)CNC(=O)[C@H](CCC(=O)O)NC(=O)C(C)(C)NC(=O)[C@@H](N)Cc1ccc(O)cc1)[C@@H](C)O)[C@@H](C)O)[C@@H](C)CC)C(=O)N[C@@H](C)C(=O)N[C@@H](CCC(N)=O)C(=O)NC(C)(C)C(=O)N[C@@H](CCCCNC(=O)COCCOCCNC(=O)COCCOCCNC(=O)CC[C@H](NC(=O)CCCCCCCCCCCCC(=O)O)C(=O)O)C(=O)N[C@@H](Cc1ccccc1)C(=O)N[C@H](C(=O)N[C@H](CCC(=O)O)C(=O)N[C@@](C)(Cc1ccc(O)cc1)C(=O)N[C@@H](CC(C)C)C(=O)N[C@H](C(=O)N[C@@H](CCCCNC(=O)COCCOCCNC(=O)COCCOCCNC(=O)CC[C@H](NC(=O)CCCCCCCCCCCCC(=O)O)C(=O)O)C(=O)NCC(=O)NCC(=O)N1CCC[C@H]1C(=O)N[C@@H](CO)C(=O)N[C@@H](CO)C(=O)NCC(=O)N[C@@H](C)C(=O)N1CCC[C@H]1C(=O)N1CCC[C@H]1C(=O)N1CCC[C@H]1C(=O)N[C@@H](CO)C(N)=O)[C@@H](C)CC)[C@@H](C)CC [Example 253]	78.9		> 9950	> 9950	113			114	
CC[C@H](C)[C@H](NC(=O)[C@H](CCCN)NC(=O)[C@H](CC(=O)O)NC(=O)[C@H](CC(C)C)NC(=O)[C@](C)(CC(C)C)NC(=O)[C@@H](NC(=O)[C@H](CO)NC(=O)[C@H](Cc1ccc2ccccc2c1)NC(=O)[C@H](CC(=O)O)NC(=O)[C@H](CO)NC(=O)[C@@H](NC(=O)[C@](C)(Cc1ccccc1F)NC(=O)[C@@H](NC(=O)CNC(=O)[C@H](CCC(=O)O)NC(=O)C(C)(C)NC(=O)[C@@H](N)Cc1ccc(O)cc1)[C@@H](C)O)[C@@H](C)O)[C@@H](C)CC)C(=O)N[C@@H](C)C(=O)N[C@@H](CCC(N)=O)C(=O)NC(C)(C)C(=O)N[C@@H](CCCCNC(=O)COCCOCCNC(=O)COCCOCCNC(=O)CC[C@H](NC(=O)CCCCCCCCCCCCC(=O)O)C(=O)O)C(=O)N[C@@H](Cc1ccccc1)C(=O)N[C@H](C(=O)N[C@H](CCC(=O)O)C(=O)N[C@@](C)(Cc1ccc(O)cc1)C(=O)N[C@@H](CC(C)C)C(=O)N[C@H](C(=O)N[C@@H](CCC(=O)O)C(=O)NCC(=O)NCC(=O)N1CCC[C@H]1C(=O)N[C@@H](CO)C(=O)N[C@@H](CO)C(=O)NCC(=O)N[C@@H](C)C(=O)N1CCC[C@H]1C(=O)N1CCC[C@H]1C(=O)N1CCC[C@H]1C(=O)N[C@@H](CO)C(=O)N[C@@H](CCCCNC(=O)COCCOCCNC(=O)COCCOCCNC(=O)CC[C@H](NC(=O)CCCCCCCCCCCCC(=O)O)C(=O)O)C(N)=O)[C@@H](C)CC)[C@@H](C)CC [Example 254]	68.5		> 9950	> 9950			98.2	122	
CC[C@H](C)[C@H](NC(=O)[C@H](CC(C)C)NC(=O)[C@](C)(Cc1ccc(O)cc1)NC(=O)[C@@H](CCC(=O)O)NC(=O)[C@@H](NC(=O)[C@H](Cc1ccccc1)NC(=O)[C@H](CCC(=O)O)NC(=O)C(C)(C)NC(=O)[C@H](CCC(N)=O)NC(=O)[C@H](C)NC(=O)[C@H](CCCCNC(=O)COCCOCCNC(=O)COCCOCCNC(=O)CCCCCCCCCCCCC(=O)O)NC(=O)[C@H](CCCN)NC(=O)[C@H](CC(=O)O)NC(=O)[C@H](CC(C)C)NC(=O)[C@](C)(CC(C)C)NC(=O)[C@@H](NC(=O)[C@H](CO)NC(=O)[C@H](Cc1ccc2ccccc2c1)NC(=O)[C@H](CC(=O)O)NC(=O)[C@H](CO)NC(=O)[C@@H](NC(=O)[C@](C)(Cc1ccccc1F)NC(=O)[C@@H](NC(=O)CNC(=O)[C@H](CCC(=O)O)NC(=O)C(C)(C)NC(=O)[C@@H](N)Cc1ccc(O)cc1)[C@@H](C)O)[C@@H](C)O)[C@@H](C)CC)[C@@H](C)CC)C(=O)N[C@@H](CCCCNC(=O)COCCOCCNC(=O)COCCOCCNC(=O)CCCCCCCCCCCCC(=O)O)C(=O)NCC(=O)NCC(=O)N1CCC[C@H]1C(=O)N[C@@H](CO)C(=O)N[C@@H](CO)C(=O)NCC(=O)N[C@@H](C)C(=O)N1CCC[C@H]1C(=O)N1CCC[C@H]1C(=O)N1CCC[C@H]1C(=O)N[C@@H](CO)C(N)=O [Example 256]	75.3	0.0175	> 9950	> 9950	95.4	0.249	97.7	95.5	1.5
